pIC50: −log10 of the molar value. Activity calls are given as the source filed them.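 Rule for the calls: active = peak TASK1 channel inhibition over 30% at some tested dose, plus a fitted dose response curve; inactive = no inhibition at any dose, or no curve fitted.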
tested on: not listed separately; assay: thallium flux inhibition in parental CHO, SAR follow-up, counter-screen for TASK1 inhibitor project, cell-based, FluxOR thallium flux, CRC (AID 652188); settings: CHO parental cells, FluxOR thallium flux counter-screen; at 30 µM (top of the series)

Structure (SMILES)	flux ratio, lower = inhibition
Cc1cccc(C(=O)Nc2cccc(NC(=O)c3cccc(C(F)(F)F)c3)c2)c1	0.304 (inactive)
Cc1cccc(C(=O)Nc2cccc(NC(=O)c3cccc(F)c3)c2)c1	0.313 (inactive)
CCCC(=O)C1CCN(c2ncnc3c2CN(C(=O)c2ccc(-c4ccccc4)cc2)CC3)CC1	0.302 (inactive)
COc1ccc(CC(=O)NCc2ccccc2-c2ccccc2C(=O)NCc2ccc(F)cc2F)cc1	0.295 (inactive)
COc1ccccc1C(=O)Nc1cc(NC(=O)c2ccccc2C(C)C)ccc1F	0.298 (inactive)
Cc1cccc(C(=O)Nc2cccc(NC(=O)c3ccncc3)c2)c1	0.32 (inactive)
COc1cnccc1C(=O)Nc1cccc(NC(=O)c2cccc(C)c2)c1	0.339 (inactive)
Cc1cccc(C(=O)Nc2cccc(NC(=O)c3ccccc3)c2)c1	0.319 (inactive)
COc1ccccc1C(=O)Nc1cccc(NC(=O)c2cccc(C)c2)c1	0.322 (inactive)
COc1c(F)cccc1C(=O)Nc1cccc(NC(=O)c2cccc(C)c2)c1	0.317 (inactive)
O=C(Nc1cccc(NC(=O)c2cccc(F)c2)c1)c1ccccc1	0.326 (inactive)
Cc1cccc(C(=O)Nc2cccc(NC(=O)c3cccs3)c2)c1	0.334 (inactive)
COc1ccccc1C(=O)Nc1cc(NC(=O)c2cccc(C)c2)ccc1F	0.306 (inactive)
COc1ccc(F)cc1C(=O)Nc1cccc(NC(=O)c2cccc(C)c2)c1	0.311 (inactive)

tested on: CHO parental cells, FluxOR thallium flux counter-screen; assay: as above; settings: not given

Structure (SMILES)	pIC50
CCOc1ccccc1C(=O)Nc1cccc(NC(=O)c2cccc(C)c2)c1	5.91
O=C(Nc1cccc(NC(=O)c2ccccc2)c1)c1ccccc1	6.62

Reference: PubChem BioAssay AID652188 (Johns Hopkins Ion Channel Center, 2013)
